Measured values taken from article PMC6783563 (Frontiers in Microbiology, 2019).
Entries after “also recorded” stand apart in the source; their conditions may differ. Where two headings read alike, the source gives them in different places. Residues, ends and D or L forms follow the SMILES beside them. *: point of attachment. Orn(α-tetramethylguanidino) = CN(C)C(=N[C@@H](CCCN)C(=O)*)N(C)C

Legend:
[1] = tested on: CD-1 mice; assay: Tolerance study after intravenous injection in mice; type: in vivo, mouse; settings: female CD-1 mice, n = 2
Method: (§1) Eight female CD-1 mice (22–30 g, n = 2) or four SD rats (218–260 g, n = 1) were treated iv (10 and 5 mL/kg, respectively) with Api137 formulated in 0.9% saline (TEKnova, Hollister, CA, United States) at concentrations of 5, 10, 25, and 50 mg/kg body weight and their behavior monitored for 24 h.

[2] = tested on: SD rats; assay: Tolerance study after intravenous injection in rats; type: in vivo, rat; settings: monitored 24 h, n = 1
Method: as §1

[3] = Pharmacokinetics: Api137 plasma levels after iv or sc injection in mice; design: species or system CD-1 mice; settings: in vivo
Method: (§2) Api137 dissolved in 0.9% saline was injected iv or sc in mice (18–26 g, total = 51) and rats (204–248 g, total = 12) at a dose volume of 10 and 5 mL/kg BW, respectively, according to the dosing scheme (Supplementary Figures 1, 2). Three mice per dose and time point were euthanized by carbon dioxide inhalation and blood was collected via cardiac puncture into K2-EDTA Microtainer® tubes (Becton Dickinson and Company, BD, Franklin Lakes, NJ, United States). Additionally, blood was collected via saphenous vein puncture from three rats into identic tubes.
(§3) Api137 was quantified in EDTA plasma samples using reversed-phase chromatography (RP-HPLC) coupled to electrospray ionization mass spectrometry (ESI-MS/MS) at TNO Triskelion (Zeist, Netherlands). Analog Api134 was used as internal standard. Briefly, internal standard solution (10 μL, 5 mg/L) was added to a plasma sample (50 μL) and mixed with aqueous phosphoric acid (50 μL; 4%, v/v). Solid phase extraction was performed on a WCX micro-elution plate (Waters Corporation, Milford, MA, United States) with a final elution using aqueous acetonitrile (75%, v/v) containing 1% (v/v) trifluoroacetic acid. Extracts were analyzed on an Acquity C18 BEH column (2.1 mm internal diameter, 10 cm length, 1.7 μm particle size; Waters) using an Acquity UPLC system coupled online to a XEVO TQS mass spectrometer (Waters; for details see Supplementary Material). Alternatively, Api137 and metabolites 1–16 and 1–17 were quantified for selected samples in house as reported recently ([Schmidt et al., 2017]).
(§4) 1. Quantitative analysis of Api137 in plasma using a LC-MS/ MS method
(§5) Chemicals were obtained from the following manufacturers. Biosolve B.V. (Valkenswaard, The Netherlands): acetonitrile, formic acid, methanol (all ULC/MS grade); Sigma-Aldrich (St.
(§6) Louis, MO, USA): phosphoric acid (Fluka, 85%), trifluoroacetic acid (Reagent Plus, 99%); Merck KGaA (Darmstadt, Germany): ammonia (25%); water (Milli -Q® Advantage A10 Water […]
(§7) Internal standard solution (10 µL, Api134, 5 µg/mL) was added to a plasma sample (50 µL or 25 µL) and mixed with aqueous phosphoric acid (50 µL or 75 µL; 4%, v/v). Solid phase extraction (SPE) was performed on a WCX micro -elution plate (2 mg, Waters):
(§8) Conditioning I Methanol 200
(§9) Conditioning II Purified water 200
(§10) Sample application Diluted plasma sample 110
(§11) Wash step I Aqueous ammonia (5%, v/v) 200
(§12) Wash step II Aqueous acetonitrile (20%, v/v) 200
(§13) Elution I Aqueous acetonitrile (75%, v/v) including trifluoroacetic 50 […]
(§14) Elution II Aqueous acetonitrile (75%, v/v) including trifluoroacetic 50 […]
(§15) Water (100 µL) was added to the eluate and the plate was covered to avoid avaporation. The plate was shaken (10 min, plate shaker) and the extract was analysed using RPC-MS/MS.
(§16) (1 picture or pasted object on this page, not shown here)
(§17) 1.2.RPC-ESI-MS/MS equipment and conditions
(§18) Equipment/Parameter Value
(§19) UPLC system Acquity (Micromass Waters)
(§20) UPLC column temperature 50 °C
(§21) Autosampler temperature 10 °C […]
(§22) Mobile phase A 1% formic acid in water
(§23) Mobile phase B 1% formic acid in acetonitrile
(§24) Strong Wash [Volume] Methanol/Water/Formic acid (80/20/0.1) [200 µL]
(§25) Weak wash [Volume] Acetonitrile/Water/Trifluoroacetic acid (40/60/0.25) [600 µL]
(§26) Mass spectrometer XEVO TQS (Micromass Waters)
(§27) Ionization mode Electrospray ionization (positive mode)
(§28) Source temperature 150 °C
(§29) Desolvation temperature 600 °C
(§30) Desolvation gas flow 1000 L/h
(§31) Time [min] Mobile phase B [%]
(§32) 1.4.Conditions for multiple reaction monitoring
(§33) Peptide Precursor ion (m/z) Product ion (m/z) Cone [V] Collision energy [eV]
(§34) The peak area of the peptides was obtained using MassLynx 4.1 software (Micromass Waters). The peak a rea ratio (PAR) of peptide Api137 and the internal standard Api134 (Y-axis) was plotted versus the actual peptide concentration (x -axis) to construct a calibration […]
(§35) Supplementary Figure 1 : Dosing schemes and time -points of blood collection for pharmacokinetic analysis of three mice per dose group and time -point. […]

[4] = in vivo; design: species or system Sprague Dawley rats; settings: Sprague Dawley, rat
Method: as §2, §3, §4, §5, §6, §7, §8, §9, §10, §11, §12, §13, §14, §15, §16, §17, §18, §19, §20, §21, §22, §23, §24, §25, §26, §27, §28, §29, §30, §31, §32, §33, §34, §35

[5] = mouse, in vivo, cited from earlier work
Source text: In particular, cationic proline-rich antimicrobial peptides (PrAMPs) belong to the second group binding to the negatively charged bacteria surface by electrostatic interactions through basic amino acid residues. Proline residues account for extended, partially polyproline helix II-like secondary structures that most likely support free penetration through the outer membrane of Gram-negative bacteria. PrAMPs accumulate in the periplasmic space where the transporters SbmA and MdtM actively translocate them into the cells ([Mattiuzzo et al., 2007]; [Runti et al., 2013]; [Krizsan et al., 2015a]). ... || Severe multi-drug resistant infections are treated under medical supervision in the hospital using intravenous injection or infusion as preferred administration route for rapid and controlled achievement of efficacious drug plasma levels. […] Unexpectedly, the maximal plasma levels of 6.8 mg/L obtai ...

[6] = tested on: mouse; settings: in vivo, ip, 10 mg/kg; cited from earlier work
Source text: In particular, cationic proline-rich antimicrobial peptides (PrAMPs) belong to the second group binding to the negatively charged bacteria surface by electrostatic interactions through basic amino acid residues. Proline residues account for extended, partially polyproline helix II-like secondary structures that most likely support free penetration through the outer membrane of Gram-negative bacteria. PrAMPs accumulate in the periplasmic space where the transporters SbmA and MdtM actively translocate them into the cells ([Mattiuzzo et al., 2007]; [Runti et al., 2013]; [Krizsan et al., 2015a]). ...

[7] = tested on: Escherichia coli ATCC 25922; assay: Lethal murine intraperitoneal sepsis (infection) model; type: in vivo, CD-1 mice; settings: control, iv 0.25 mg/kg at 1 h post infection, n = 6
Method: Escherichia coli ATCC 25922 was obtained from American Type Culture Collection (Manassas, VA, United States). Cells were grown overnight on solid agar, suspended in saline and adjusted to an OD of 0.1 at 625 nm. The suspension was further diluted in 5% hog gastric mucin (Sigma-Aldrich Corporation, St. Louis, MO, United States) and final inoculums between 4.8 × 10^5 and 2.0 × 10^6 colony forming units (cfu) per mouse were injected ip (500 μL). Api137 and levofloxacin was dissolved in sterile saline and sterile water, respectively, and were administered iv (5 mL/kg) into the tail vein or sc (10 mL/kg) into the back. Alternatively, an hour post infection ALZET® osmotic pumps were implanted under isoflurane anesthesia (see above). After 24 h, pumps were exchanged once and finally removed after 48 h.
The log-rank (Mantel-Cox) test was used for comparison of the survival curves and dose-response curves were fitted with the “dose-response log(inhibitor) vs. normalized response – variable slope” function with “least squares fit” using GraphPad Prism 5.02.

[8] = EDTA plasma of CD-1 mice after continuous sc infusion of Api137 (12.8 mg/kg/h) using ALZET osmotic pumps; settings: up to 24 h
[9] = CD-1, mouse, iv, 5 mg/kg, Plasma level
[10] = CD-1, mouse, iv, 10 mg/kg, Plasma level
[11] = CD-1, mouse, iv, 20 mg/kg, Plasma level
[12] = CD-1, mouse, sc, 20 mg/kg, Plasma level

CC[C@H](C)[C@H](NC(=O)[C@H](Cc1ccc(O)cc1)NC(=O)[C@@H](NC(=O)[C@@H]1CCCN1C(=O)[C@H](CCCNC(=N)N)NC(=O)[C@H](CC(N)=O)NC(=O)[C@H](CC(N)=O)NC(=O)[C@H](CCCN)N=C(N(C)C)N(C)C)C(C)C)C(=O)N1CCC[C@H]1C(=O)N[C@@H](CCCNC(=N)N)C(=O)N1CCC[C@H]1C(=O)N[C@@H](CCCNC(=N)N)C(=O)N1CCC[C@H]1C(=O)N1CCC[C@H]1C(=O)N[C@@H](Cc1c[nH]cn1)C(=O)N1CCC[C@H]1C(=O)N[C@@H](CCCNC(=N)N)C(=O)N[C@@H](CC(C)C)C(=O)O [Api137] ({Orn(α-tetramethylguanidino)}-NNRPVYIPRPRPPHPRL-OH)
Tolerance after iv injection ([1]; 5 mg/kg iv in 0.9% saline, monitored 24 h): No adverse effects were observed | Tolerance after iv injection ([1]; 50 mg/kg iv): experienced convulsion and low blood pressure immediately after dosing and died within 1 min | Tolerance after iv injection ([1]; 10 and 20 mg/kg iv, monitored 24 h): lethargic within minutes directly after dosing with piloerection for the next 45 min but recovered to normal limits within 1 h | Tolerance after iv injection ([2]; 5 mg/kg iv): No adverse effects were observed | Tolerance after iv injection ([2]; 10 to 50 mg/kg iv): experienced labored breathing and lethargy but recovered to normal limits within 5 h post injection | level at 0.5 h ([3]; CD-1, mouse, 20 mg/kg, Plasma level after 30 min): ~500 ng/mL | Plasma level ([3]; CD-1, mouse, iv): 5 to 20 ng/mL | level at 245 min ([3]; CD-1, mouse, iv, 5 mg/kg, Plasma concentration): 10100 ng/mL | level at 5 min [3, 9]: 6800 ng/mL | level at 0.5 h [3, 9]: 90 ng/mL | level at 245 min ([3]; CD-1, mouse, iv, 10 mg/kg, Plasma concentration): 10500 ng/mL | level at 5 min [3, 10]: 12900 ng/mL | level at 0.5 h [3, 10]: 300 ng/mL | level at 4.5 h [3, 10]: 160 ng/mL | level at 245 min ([3]; CD-1, mouse, iv, 20 mg/kg, Plasma concentration): 22900 ng/mL | level at 5 min [3, 11]: 23200 ng/mL | level at 0.5 h [3, 11]: 440 ng/mL | level at 125 min [3, 11]: 15400 ng/mL | level at 245 min [3, 11]: 12500 ng/mL | level at 4.5 h [3, 11]: 90 ng/mL | level at 5 min ([3]; CD-1, mouse, sc, 5 mg/kg, Plasma level): 400 ng/mL | level at 5 min ([3]; CD-1, mouse, sc, 10 mg/kg, Plasma level): 900 ng/mL | level at 5 min [3, 12]: 2900 ng/mL | level at 0.5 h [3, 12]: 300 ng/mL | level at 1 h [3, 12]: 14 ng/mL | half-life ([3]; mouse, iv, 20 mg/kg): < 30 min | level at 0.5 h ([4]; iv): 160 to 210 ng/mL | level at 5 min ([4]; sc, 5 mg/kg): 100 ng/mL | level at 0.5 h ([4]; sc, 5 mg/kg): 30 ng/mL | level at 5 min ([4]; sc, 10 mg/kg): 400 ng/mL | level at 0.5 h ([4]; sc, 10 mg/kg): 80 ng/mL | level at 5 min ([4]; sc, 20 mg/kg): 800 ng/mL | level at 0.5 h ([4]; sc, 20 mg/kg): 250 ng/mL | level at 1 h ([4]; sc, 20 mg/kg): 20 ng/mL | Plasma level ([5]; ip, 5 mg/kg): 200 ng/mL | Maximal plasma level ([5]; ip, 20 mg/kg): 3.6 mg/L | Plasma level (maximal) ([5]; iv, 5 mg/kg): 400 ng/mL | Immune response (anti-Api137 IgG antibodies) [6]: Only one mouse showed a very weak immune response with a very low level of anti-Api137 IgG antibodies

C[C@H]1COc2c(N3CCN(C)CC3)c(F)cc3c(=O)c(C(=O)O)cn1c23 [levofloxacin]
Efficacy compared with Api137 [7]: more efficacious

Gu-ONNRPVYIPRPRPPHPRL-OH
fragment found [8]: Api137(1-17), major, 1 h; also recorded: Api137(1-16), major, 1 h
